Test results: patent US20220030868A1, “FUNGICIDAL HALOMETHYL KETONES AND HYDRATES” (FMC CORPORATION, priority 2018, published 2022)

How the values were obtained:
[1] = tested on: Phakopsora pachyrhizi; assay: Test A: test suspension sprayed on soybean seedlings one day before inoculation with Phakopsora pachyrhizi spores (Asian soybean rust), visual disease rating; format: in vivo; settings: 100 = 100% disease control, 0 = no control
Description: General protocol for preparing test suspensions for Tests A-C: the test compounds were first dissolved in acetone in an amount equal to 3% of the final volume and then suspended at the desired concentration (in ppm) in acetone and purified water (50/50 mix by volume) containing 250 ppm of the surfactant PEG400 (polyhydric alcohol esters). The resulting test suspensions were then used in Tests A-C.
The test solution was sprayed to the point of run-off on soybean seedlings. The following day the seedlings were inoculated with a spore suspension of Phakopsora pachyrhizi (the causal agent of Asian soybean rust) and incubated in a saturated atmosphere at 22° C. for 24 h, and then moved to a growth chamber at 22° C. for 8 days, after which time visual disease ratings were made.
Results for Tests A-C are given in Table A. In the Table, a rating of 100 indicates 100% disease control and a rating of 0 indicates no disease control (relative to the controls). An asterisk “*” or a double asterisk “**” next to the rating value indicates a 50 ppm or 10 ppm test suspension was used, respectively. A dash (-) indicates the compound was not tested.

[2] = tested on: Puccinia recondita f. sp. tritici; assay: Test B: test suspension sprayed on wheat seedlings one day before inoculation with Puccinia recondita f. sp. tritici spores (wheat leaf rust), disease rating; format: in vivo; settings: 100 = 100% disease control, 0 = no control
Description: General protocol for preparing test suspensions for Tests A-C: the test compounds were first dissolved in acetone in an amount equal to 3% of the final volume and then suspended at the desired concentration (in ppm) in acetone and purified water (50/50 mix by volume) containing 250 ppm of the surfactant PEG400 (polyhydric alcohol esters). The resulting test suspensions were then used in Tests A-C. The test solution was sprayed to the point of run-off on wheat seedlings. The following day the seedlings were inoculated with a spore suspension of Puccinia recondita f. sp. tritici (the causal agent of wheat leaf rust) and incubated in a saturated atmosphere at 20° C. for 24 h, and then moved to a growth chamber at 20° C. for 6 days, after which time disease ratings were made. Results for Tests A-C are given in Table A. In the Table, a rating of 100 indicates 100% disease control and a rating of 0 indicates no disease control (relative to the controls). An asterisk “*” or a double asterisk “**” next to the rating value indicates a 50 ppm or 10 ppm test suspension was used, respectively. A dash (-) indicates the compound was not tested.

Row | Compound | Test A rating (disease control) ([1]; 10 ppm test suspension) [%] | Test B rating (disease control) ([2]; 10 ppm test suspension) [%] | other results
1 | CCOC(=O)C1=NOC(Cc2ccc(OC=C(OCC)C(F)(F)F)cc2)C1 (mixture of isomers) [compound 287] | – | – | Test A rating (disease control) ([1]; 50 ppm test suspension): 77%; Test B rating (disease control) ([2]; 50 ppm test suspension): 0%
2 | CCOC(=COc1ccc(CC2CC(C(=O)N(C)C)=NO2)cc1)C(F)(F)F (mixture of isomers) [compound 288] | – | – | Test A rating (disease control) ([1]; 50 ppm test suspension): 96%; Test B rating (disease control) ([2]; 50 ppm test suspension): 0%
3 | CCOC(=COc1ccc(CN2CCC(C(=O)OC)C2)cc1)C(F)(F)F (mixture of isomers) [compound 310] | 100 | 0 | –
4 | CCOC(=O)c1cnn(Cc2ccc(OCC(O)(O)C(F)(F)F)cc2)c1 [Compound 1, ethyl 1-[[4-(3,3,3-trifluoro-2,2-dihydroxypropoxy)phenyl]methyl]-1H-pyrazole-4-carboxylate] | – | – | pest or weed control at 250 ppm ([1]; Phakopsora pachyrhizi, 250 ppm test suspension): 100%; pest or weed control at 250 ppm ([2]; 250 ppm test suspension): 91%
5 | OC(O)(COc1ccc(OCC(O)(O)C(F)(F)F)cc1)C(F)(F)F [Compound 2] | 77 | 32 | –
6 | CCOC(=O)c1cnn(Cc2ccc(OC(C)C(O)(O)C(F)(F)F)cc2)c1 (stereo not drawn) [Compound 5] | 0 | 0 | –
7 | CCOC(=O)c1cnn(Cc2ccc(OCC(O)(NO)C(F)(F)F)cc2)c1 (stereo not drawn) [Compound 10] | 100 | 86 | –
8 | CCOC(=O)c1cnn(Cc2ccc(OCC3(C(F)(F)F)OCC(C)(C)O3)cc2)c1 (stereo not drawn) [Compound 12, ethyl 1-[[4-[[4,4-dimethyl-2-(trifluoromethyl)-1,3-dioxolan-2-yl]methoxy]-phenyl]methyl]-1H-pyrazole-4-carboxylate] | – | – | pest or weed control at 10 ppm ([1]; Phakopsora pachyrhizi, 10 ppm test suspension): 13%; pest or weed control at 10 ppm ([2]; 10 ppm test suspension): 0%
9 | CCOC(=O)c1cnn(Cc2ccc(OCC3(C(F)(F)F)OC(=O)CS3)cc2)c1 (stereo not drawn) [Compound 20] | 98 | 86 | –
10 | CCOC(=O)c1cnn(Cc2ccc(OCC3(C(F)(F)F)NCCO3)cc2)c1 (stereo not drawn) [Compound 21] | 84 | 23 | –
11 | CCS(=O)(=O)Cc1ccc(OCC(O)(O)C(F)(F)F)cc1 [Compound 29] | 84 | 28 | –
12 | OC(O)(CCc1ccc(Cn2ccc3ccccc32)cc1)C(F)(F)F [Compound 30] | 0 | 0 | –
13 | CS(=O)(=O)c1ccc(OCC(O)(O)C(F)(F)F)cc1 [Compound 31] | 44 | 93 | –
14 | COC(=O)NN=Cc1ccc(OCC(O)(O)C(F)(F)F)cc1 [Compound 33] | 96 | 86 | –
15 | CN(C)S(=O)(=O)c1ccc(OCC(O)(O)C(F)(F)F)cc1 [Compound 34] | 0 | 80 | –
16 | CCOC(=O)c1cnn(C(C)c2ccc(OCC(O)(O)C(F)(F)F)cc2)c1 (stereo not drawn) [Compound 35] | 99 | 32 | –
17 | O=C(NCC1CC1)c1cnn(Cc2ccc(OCC(O)(O)C(F)(F)F)cc2)c1 [Compound 36] | 70 | 0 | –
18 | COC(=O)c1cnn(Cc2ccc(OCC(O)(O)C(F)(F)F)cc2)c1 [Compound 37] | 99 | 86 | –
19 | C=CC(F)(F)OC(=O)c1cnn(Cc2ccc(OCC(O)(O)C(F)(F)F)cc2)c1 [Compound 38] | 97 | 89 | –
20 | CC(C)OC(=O)c1cnn(Cc2ccc(OCC(O)(O)C(F)(F)F)cc2)c1 [Compound 39] | 91 | 79 | –
21 | C=C(C)COC(=O)c1cnn(Cc2ccc(OCC(O)(O)C(F)(F)F)cc2)c1 [Compound 40] | 91 | 68 | –

Row | Compound | Test A rating (disease control) ([1]; 10 ppm test suspension) [%] | Test B rating (disease control) ([2]; 10 ppm test suspension) [%] | other results
22 | CN(C)C(=O)C1=NOC(c2ccc(OCC(O)(O)C(F)(F)F)cc2)C1 (stereo not drawn) [Compound 41] | 92 | 23 | –
23 | CCCOC(=O)c1cnn(Cc2ccc(OCC(O)(O)C(F)(F)F)cc2)c1 [Compound 42] | 99 | 85 | –
24 | C=CCOC(=O)c1cnn(Cc2ccc(OCC(O)(O)C(F)(F)F)cc2)c1 [Compound 43] | 96 | 60 | –
25 | C#CCOC(=O)c1cnn(Cc2ccc(OCC(O)(O)C(F)(F)F)cc2)c1 [Compound 44] | 97 | 85 | –
26 | O=C(OCC(F)(F)F)c1cnn(Cc2ccc(OCC(O)(O)C(F)(F)F)cc2)c1 [Compound 45] | 87 | 85 | –
27 | O=C(OCC(F)(F)C(F)(F)F)c1cnn(Cc2ccc(OCC(O)(O)C(F)(F)F)cc2)c1 [Compound 46] | 64 | 85 | –
28 | O=C(OCc1ccccc1)c1cnn(Cc2ccc(OCC(O)(O)C(F)(F)F)cc2)c1 [Compound 47] | – | – | Test A rating (disease control) ([1]; 50 ppm test suspension): 100%; Test B rating (disease control) ([2]; 50 ppm test suspension): 95%
29 | CCCCCCOC(=O)c1cnn(Cc2ccc(OCC(O)(O)C(F)(F)F)cc2)c1 [Compound 48] | – | – | Test A rating (disease control) ([1]; 50 ppm test suspension): 100%; Test B rating (disease control) ([2]; 50 ppm test suspension): 91%
30 | O=C(OCc1ccc(Cl)c(Cl)c1)c1cnn(Cc2ccc(OCC(O)(O)C(F)(F)F)cc2)c1 [Compound 49] | 0 | 86 | –
31 | O=C(OCc1ccc(F)c(F)c1)c1cnn(Cc2ccc(OCC(O)(O)C(F)(F)F)cc2)c1 [Compound 50] | 54 | 91 | –
32 | CCOC(=O)c1cnn(Cc2ccc(C(O)CC(O)(O)C(F)(F)F)cc2)c1 (stereo not drawn) [Compound 51] | 0 | 0 | –
33 | CCOC(=O)c1cnn(Cc2ccc(OCC3(C(F)(F)F)OCCCO3)cc2)c1 [Compound 52] | 99 | 0 | –
34 | CCOC(=O)c1cnn(Cc2ccc(CCC(O)(O)C(F)(F)F)cc2)c1 [Compound 66] | – | – | Test A rating (disease control) ([1]; 50 ppm test suspension): 92%; Test B rating (disease control) ([2]; 50 ppm test suspension): 89%
35 | O=C(NCC(F)(F)F)c1csc(Cc2ccc(OCC(O)(O)C(F)(F)F)cc2)n1 [Compound 68] | 100 | 95 | –
36 | O=C(NCC1CC1)c1csc(Cc2ccc(OCC(O)(O)C(F)(F)F)cc2)n1 [Compound 69] | 98 | 96 | –
37 | O=C(NCC(F)(F)F)c1csc(Cc2ccc(OCC3(C(F)(F)F)OCCO3)cc2)n1 [Compound 70] | – | – | Test A rating (disease control) ([1]; 250 ppm test suspension): 100%; Test B rating (disease control) ([2]; 250 ppm test suspension): 100%
38 | CC(=O)c1ccc(OCC(O)(O)C(F)(F)F)cc1 [Compound 80] | – | – | Test A rating (disease control) ([1]; 50 ppm test suspension): 99%; Test B rating (disease control) ([2]; 50 ppm test suspension): 100%
39 | CCO/C(=C\Oc1ccc(Cn2ncnc2C#N)cc1)C(F)(F)F [Compound 81] | 0 | 0 | –
40 | CCO/C(=C\Oc1ccc(Cn2cnc(C#N)n2)cc1)C(F)(F)F [Compound 82] | 97 | 0 | –
41 | CCOC(=O)C=CCOc1ccc(OCC(O)(O)C(F)(F)F)cc1 [Compound 97] | – | – | Test A rating (disease control) ([1]; 50 ppm test suspension): 94%; Test B rating (disease control) ([2]; 50 ppm test suspension): 0%
42 | CCO/C(=C\Oc1ccc(Cn2ncnc2C(=O)OC)cc1)C(F)(F)F [Compound 122] | 0 | 0 | –
